This is an account of results in patent US20050250677A1, “Glycopeptide antibiotic derivatives” (priority 2002, published 2005).

Each structure is given as a SMILES string. Where two headings read alike, the source gives them in different places.

In one data set the test system is HIV-1 (IIIB). Kind of data set: Inhibition of HIV-1 (IIIB)-induced cytopathicity (giant cell formation) in CEM cells. Format: cell-based. As to the method: (§1) A variety of glycopeptide antibiotic derivatives of vancomycin, eremomycin and teicoplanin including their aglycon derivatives were evaluated for their inhibitory activity against HIV-1 (IIIB) and HIV-2(ROD) in CEM cell cultures.
In general terms: Protection from cytopathic effect is a common read-out in antiviral testing.

A further data set concerns HIV-2(ROD). Kind of data set: Inhibition of HIV-2 (ROD)-induced cytopathicity (giant cell formation) in CEM cells. Format: cell-based. The note with it: read-out: EC50 HIV-2 (concentration required to inhibit HIV-induced giant cell formation by 50%); HIV-2, CEM cell cultures. On the procedure: as §1
A further data set concerns murine leukemia L1210. Kind of data set: Cytostatic activity assay, L1210 cells. It counts as cell-based. To be noted: read-out: IC50 L1210 (compound concentration required to inhibit tumor cell proliferation by 50%).
The subject of data set [1] is human lymphocyte Molt4/clone 8. Description: Cytostatic activity assay, Molt4/clone 8 cells. Format: cell-based. To be noted: read-out: IC50 Molt4/C8 (compound concentration required to inhibit tumor cell proliferation by 50%).
The test system of a further data set is human lymphocyte CEM. Kind of data set: Cytostatic activity assay, CEM cells. It counts as cell-based. To be noted: read-out: IC50 CEM (compound concentration required to inhibit tumor cell proliferation by 50%).
In another data set the test system is FCV. Description: Feline corona virus assay in Feline Crandel kidney cells (MTS). It counts as cell-based. As to the method:
Feline Crandel kidney cells were seeded in 96-well microtiter plates at 24,000 cells/well. Then, 24 hrs later, an appropriate inoculum of FCV is added together with 5-fold dilutions of the test compounds. After 4 days, a MTS/PMS solution was added to each well. Following a 90 min incubation period at 37° C., the optical density of the wells was read at 498 nm in a microplate reader.

In data set [2] the test system is SARS virus (strain Frankfurt-1). Kind of data set: microbe, parasite or virus in culture. Format: cell-based, human corona (SARS) virus.
In a further data set the test system is FCK cells. To be noted: read-out: CC50 FCK; FCK cells.
A further data set concerns Vero cells. To be noted: read-out: CC50 Vero.
A further data set concerns VZV (wild-type strains). Description: Anti-VZV assay (wild-type strains): virus-induced cytopathicity in HEL cell cultures. To be noted: HEL cell cultures. It counts as cell-based, varicella-zoster virus.
For data set [3], the system named is HEL cells.
For data set [4], the system named is HEL cells. The note with it: read-out: CC50 (HEL), HEL cells.
For the next data set, the system named is CMV. Kind of data set: Anti-CMV assay: virus-induced cytopathicity in HEL cell cultures.
Setting [5] is: read-out: EC50 HIV-1 (concentration required to inhibit HIV-induced giant cell formation by 50%), HIV-1, CEM cell cultures.
[6] abbreviates: FCV in FCK cells, read-out: EC50 FCV.
[7] abbreviates: SARS virus in Vero cells, read-out: EC50 SARS virus.
The mark [8] stands for this setting: VZV strain OKA, read-out: EC50 VZV (OKA).
Setting [9] is: VZV strain YS, read-out: EC50 VZV (YS).
Where [10] appears, read: read-out: EC50 CMV AD-169, CMV strain AD-169, HEL cell cultures.
The mark [11] stands for this setting: read-out: EC50 CMV Davis, CMV strain Davis, HEL cell cultures.

Broadly, the CC50 is the concentration that lowers cell viability or growth by half. As to `CCCCc1ccc(CN2CCN(Cc3c(O)cc4c(c3O)-c3cc(ccc3O)C3NC(=O)C5NC(=O)C(CC(N)=O)NC(=O)C(NC(=O)C(CC(C)C)NC)C(O)c6ccc(c(Cl)c6)Oc6cc5cc(c6OC5OC(CO)C(O)C(O)C5OC5CC(C)(N)C(O)C(C)O5)Oc5ccc(cc5Cl)C(O)C(NC3=O)C(=O)NC4C(=O)O)CC2)cc1` (stereo not shown) [Compound 1], the EC50 is 5.5 µM in the data set on HIV-1 (IIIB) (HIV-1 (IIIB), CEM cell cultures, read-out: EC50 against HIV-1); 12 ± 3.5 µM in the data set on HIV-1 (IIIB) (setting [5]); 22 ± 3.5 µM in the data set with HIV-2(ROD); 30 µM with FCV (setting [6]); 30 to 43 µM with FCV (read-out: EC50 against FCV); 43 µM in data set [2] (setting [7]). Besides, the EC50 in data set [2] (read-out: EC50 against SARS virus) fell in the range of 30 to 43 µM. Besides, the IC50 with murine leukemia L1210 was 53 ± 9 µM; in data set [1] it was over 100 µM; in the data set with human lymphocyte CEM it was over 100 µM. Besides, the cytotoxic concentration (CC50) was over 50 µM with FCK cells and over 100 µM with Vero cells.
Take `CCCCCCCCCNCc1c(O)cc2c(c1O)-c1cc(ccc1O)C1NC(=O)C3NC(=O)C4NC(=O)C(Cc5ccc(c(Cl)c5)Oc5cc3cc(c5O)Oc3ccc(cc3Cl)C(O)C(NC1=O)C(=O)NC2C(=O)NCCCN(C)C)NC(=O)C(N)c1ccc(O)c(c1)Oc1cc(O)cc4c1` (stereo not shown) [Compound 21]: the EC50 with HIV-1 (IIIB) (setting [5]) was determined as 2.2 µM; in the data set on HIV-2(ROD) it was 6.5 ± 0.7 µM; in the data set on VZV (wild-type strains) (setting [8]), 1.3 µM; in the data set with VZV (wild-type strains) (setting [9]), 2 µM; in the data set with CMV (setting [10]) it was 8 µM. In addition, the IC50 in the data set on murine leukemia L1210 was 43 ± 6 µM; in data set [1], 136 ± 33 µM; in the data set with human lymphocyte CEM it was 179 ± 1 µM. In addition, the “MTC (HEL)” value with HEL cells [3] (anti-CMV table) and with HEL cells [3] (anti-VZV table) was 5 to 50 µM throughout. Moreover, the CC50 in the data set with HEL cells [4] (anti-CMV table) and in the data set on HEL cells [4] (anti-VZV table) was 107 µM each time. The “anti-CMV activity” value with CMV was “anti-CMV activity”.
`NC1C(=O)NC2Cc3ccc(c(Cl)c3)Oc3cc4cc(c3O)Oc3ccc(cc3Cl)C(O)C3NC(=O)C(NC(=O)C4NC(=O)C(NC2=O)c2cc(O)cc(c2)Oc2cc1ccc2O)c1ccc(O)c(c1)-c1c(O)cc(O)cc1C(C(=O)N1CCN(Cc2ccc4ccccc4c2)CC1)NC3=O` (stereo not shown) [Compound 25]: the EC50 turned out to be 2.1 ± 1.3 µM in the data set with HIV-1 (IIIB) (setting [5]); 5 µM in the data set on HIV-2(ROD); 1 µM with VZV (wild-type strains) (setting [8]); 0.6 µM in the data set with VZV (wild-type strains) (setting [9]); 30 µM with CMV (setting [10]). In addition, the figures for the IC50 (in the data set on murine leukemia L1210; in data set [1]; in the data set on human lymphocyte CEM) were 175 ± 44 µM, 47 ± 4 µM and 113 ± 28 µM, respectively. For the same molecule, the “MTC (HEL)” value with HEL cells [3] (anti-CMV table) and in the data set with HEL cells [3] (anti-VZV table) was 20 to 200 µM each time. Further, the CC50 in the data set on HEL cells [4] (anti-CMV table) and with HEL cells [4] (anti-VZV table) was over 50 µM in each case. Besides, the “anti-CMV activity” value with CMV was “anti-CMV activity”.
Regarding `CCCCCCCCCC[N+](C)(C)CCCNC(=O)C1NC(=O)C2NC(=O)C(NC(=O)C3NC(=O)C4NC(=O)C(Cc5ccc(c(Cl)c5)Oc5cc3cc(c5O)Oc3ccc(cc3Cl)C2O)NC(=O)C(N)c2ccc(O)c(c2)Oc2cc(O)cc4c2)c2ccc(O)c(c2)-c2c(O)cc(O)cc21` (stereo not shown) [Compound 27], the EC50 in the data set on HIV-1 (IIIB) (setting [5]) is 1.5 ± 0.42 µM; in the data set with HIV-2(ROD), 2.3 ± 0.21 µM; in the data set on VZV (wild-type strains) (setting [8]), 1 µM; in the data set with VZV (wild-type strains) (setting [9]), 0.8 µM; with CMV (setting [10]), at least 5 µM; with CMV (setting [11]), 3.5 µM. Besides, the IC50 in the data set on murine leukemia L1210 is 9.1 ± 0.9 µM; in [1] it was 28 ± 0.4 µM; with human lymphocyte CEM it was 18 ± 3 µM. Besides, the “MTC (HEL)” value in the data set on HEL cells [3] (anti-CMV table) and in the data set on HEL cells [3] (anti-VZV table) was “≧2-50 μM” throughout. The CC50 in the data set with HEL cells [4] (anti-CMV table) and in the data set on HEL cells [4] (anti-VZV table) was over 200 µM throughout. Further, the “anti-CMV activity” value in the data set with CMV is “anti-CMV activity”.
Consider `CCCCCCCCCC[N+](C)(C)CCCNCc1c(O)cc2c(c1O)-c1cc(ccc1O)C1NC(=O)C3NC(=O)C4NC(=O)C(Cc5ccc(c(Cl)c5)Oc5cc3cc(c5O)Oc3ccc(cc3Cl)C(O)C(NC1=O)C(=O)NC2C(=O)NCCC[N+](C)(C)CCCCCCCCCC)NC(=O)C(N)c1ccc(O)c(c1)Oc1cc(O)cc4c1` (stereo not shown) [Compound 37], for which the EC50 is 1.6 ± 0.58 µM in the data set with HIV-1 (IIIB) (setting [5]); 4.3 ± 0.58 µM with HIV-2(ROD); 1.5 µM with VZV (wild-type strains) (setting [8]); over 2 µM in the data set on VZV (wild-type strains) (setting [9]); over 5 µM with CMV (setting [10]); 3.5 µM with CMV (setting [11]). Besides, the figures for the IC50 (in the data set on murine leukemia L1210; in [1]; with human lymphocyte CEM) were 12 ± 2 µM, 19 ± 12 µM and 9.4 ± 1.9 µM, respectively. Moreover, the “MTC (HEL)” value in the data set on HEL cells [3] (anti-CMV table) and in the data set with HEL cells [3] (anti-VZV table) was “≧2-20 μM” each time. For the same molecule, the cytotoxic concentration (CC50) with HEL cells [4] (anti-CMV table) and with HEL cells [4] (anti-VZV table) was 43 µM in each case.
For the molecule `CCCCCCCCCCCCNCc1c(O)cc2c(c1O)-c1cc(ccc1O)C1NC(=O)C3NC(=O)C(CC(N)=O)NC(=O)C(NC(=O)C(CC(C)C)NC)C(O)c4ccc(c(Cl)c4)Oc4cc3cc(c4OC3OC(CO)C(O)C(O)C3OC3CC(C)(N)C(O)C(C)O3)Oc3ccc(cc3)C(OC3CC(C)(N)C(O)C(C)O3)C(NC1=O)C(=O)NC2C(=O)O` (stereo not shown) [Compound 64], the “activity against FCV” value with FCV is reported as “active”. Also, the EC50 in the data set on FCV (setting [6]) stood at 8.2 µM; in data set [2] (setting [7]), 31 µM. Moreover, the CC50 with FCK cells was 75 µM; in the data set with Vero cells, over 100 µM.
For `CNC(CC(C)C)C(=O)NC1C(=O)NC(CC(N)=O)C(=O)NC2C(=O)NC3C(=O)NC(C(=O)NC(C(=O)N(C(=O)NC4CCCCC4)C4CCCCC4)c4cc(O)cc(O)c4-c4cc3ccc4O)C(O)c3ccc(cc3)Oc3cc2cc(c3O)Oc2ccc(cc2Cl)C1O` (stereo not shown) [Compound 102], the EC50 in the data set with HIV-1 (IIIB) (setting [5]) came to 7.5 ± 4.8 µM; with HIV-2(ROD), 32.5 ± 3.5 µM; in data set [2] (setting [7]), 68 µM. For the same molecule, the IC50 (in the data set on murine leukemia L1210; in data set [1]; in the data set with human lymphocyte CEM) was over 250 µM throughout. Further, the CC50 in the data set with FCK cells and in the data set with Vero cells was over 100 µM in each case.
Take `NC1C(=O)NC2Cc3ccc(c(Cl)c3)Oc3cc4cc(c3O)Oc3ccc(cc3Cl)C(O)C3NC(=O)C(NC(=O)C4NC(=O)C(NC2=O)c2cc(O)cc(c2)Oc2cc1ccc2O)c1ccc(O)c(c1)-c1c(O)cc(O)cc1C(C(=O)O)NC3=O` (stereo not shown) [Compound 159]: the figures for the EC50 (in the data set on FCV (setting [6]); in data set [2] (setting [7])) were 9.9 µM and 28 µM, respectively. Moreover, the cytotoxic concentration (CC50) with FCK cells is 85 µM; with Vero cells, over 100 µM.
For `NC1C(=O)NC2Cc3ccc(c(Cl)c3)Oc3cc4cc(c3O)Oc3ccc(cc3Cl)C(O)C3NC(=O)C(NC(=O)C4NC(=O)C(NC2=O)c2cc(O)cc(c2)Oc2cc1ccc2O)c1ccc(O)c(c1)-c1c(O)cc(O)cc1C(C(=O)NC1CC2CCC1C2)NC3=O` (stereo not shown) [Compound 162], the EC50 amounted to 4.5 µM in the data set with HIV-1 (IIIB) (setting [5]), 11 µM in the data set with HIV-2(ROD), 4.7 µM in the data set on FCV (setting [6]) and 22 µM in data set [2] (setting [7]). For the same molecule, the CC50 in the data set with FCK cells is at least 100 µM; in the data set on Vero cells, over 100 µM.
For `O=C(NC1C(=O)NC2Cc3ccc(c(Cl)c3)Oc3cc4cc(c3O)Oc3ccc(cc3Cl)C(O)C3NC(=O)C(NC(=O)C4NC(=O)C(NC2=O)c2cc(O)cc(c2)Oc2cc1ccc2O)c1ccc(O)c(c1)-c1c(O)cc(O)cc1C(C(=O)O)NC3=O)C(=O)c1c[nH]c2ccccc12` (stereo not shown) [Compound 163], the EC50 in the data set on HIV-1 (IIIB) (setting [5]) amounted to 10 µM; in the data set with HIV-2(ROD), 15 µM; in the data set on FCV (setting [6]), 2.2 µM; in [2] (setting [7]), 26 µM. Besides, the values for the CC50 in the data set on FCK cells and in the data set with Vero cells were 63 µM and over 100 µM, respectively.
